According to US20220106328A1, “HETEROCYCLIC COMPOUNDS” (Hoffmann-La Roche Inc., priority 2019, published 2022):
pIC50: −log10 of the molar value.

Target: T1, MAGL (Homo sapiens, UniProt Q99685)
T1 sequence (Q99685 1-303): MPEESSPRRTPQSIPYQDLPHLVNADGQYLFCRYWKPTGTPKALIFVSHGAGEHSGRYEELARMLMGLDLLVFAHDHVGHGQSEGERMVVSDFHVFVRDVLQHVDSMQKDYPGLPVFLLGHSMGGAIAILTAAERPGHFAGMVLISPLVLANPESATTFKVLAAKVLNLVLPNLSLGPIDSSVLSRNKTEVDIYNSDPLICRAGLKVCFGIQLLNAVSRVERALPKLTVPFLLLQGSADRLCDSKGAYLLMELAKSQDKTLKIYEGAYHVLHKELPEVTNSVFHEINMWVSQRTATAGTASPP
Experiment: 2-AG assay (MAGL inhibitory activity; hydrolysis of 2-arachidonoylglycerol to arachidonic acid followed by mass spectrometry)
Type: biochemical
Settings: 8 μM 2-arachidonoylglycerol, 15 min pre-incubation, 30 min incubation at rt, RapidFire MS read-out
Method: Compounds were profiled for MAGL inhibitory activity by determining the enzymatic activity by following the hydrolysis of the natural substrate 2-arachidonoylglycerol resulting in arachidonic acid, which can be followed by mass spectrometry. This assay is hereinafter abbreviated “2-AG assay”.
A C18 SPE cartridge (G9205A) was used in an ACN/water liquid setup. […] The activity of the compounds was calculated based on the ratio of intensities [arachidonic acid/d8-arachidonic acid].

Row | Compound | pIC50
1 | O=C1CO[C@H]2CCN(C(=O)N3CC(c4ccc(OC(F)(F)F)c(Cl)c4)C3)C[C@@H]2N1 (single isomer, unassigned) [Example 8, (−)- or (+)-trans-6-[3-[3-Chloro-4-(trifluoromethoxy)phenyl]azetidine-1-carbonyl]-4,4a,5,7,8,8a-hexahydropyrido[4,3-b][1,4]oxazin-3-one] | 7.25
2 | O=C1CO[C@H]2CCN(C(=O)N3CC(c4ccc(-c5ccc(F)cc5F)cc4)C3)C[C@@H]2N1 (single isomer, unassigned) [Example 14, (−)- or (+)-trans-6-[3-[4-(2,4-Difluorophenyl)phenyl]azetidine-1-carbonyl]-4,4a,5,7,8,8a-hexahydropyrido[4,3-b][1,4]oxazin-3-one] | 7.55
3 | CC(C)(C)c1ccc(C2CN(C(=O)N3CCC4OCC(=O)NC4C3)C2)cc1 (single isomer, unassigned) [Example 2, (−)- or (+)-trans-6-[3-(4-tert-Butylphenyl)azetidine-1-carbonyl]-4,4a,5,7,8,8a-hexahydropyrido[4,3-b][1,4]oxazin-3-one] | 7.41

More lines, now with the values ahead:

Row | pIC50 | Compound
4 | 7.11 | O=C1CO[C@H]2CCN(C(=O)N3CC(OCc4ccc(C(F)(F)F)cc4Cl)C3)C[C@@H]2N1 (single isomer, unassigned) [Example 21, (−)- or (+)-trans-6-[3-[[2-Chloro-4-(trifluoromethyl)phenyl]methoxy]azetidine-1-carbonyl]-4,4a,5,7,8,8a-hexahydropyrido[4,3-b][1,4]oxazin-3-one]
5 | 7.62 | O=C1CO[C@@H]2CCN(C(=O)N3CC4(CC(Cc5ccc(F)cc5F)C4)C3)C[C@H]2N1 (single isomer, unassigned) [Example 17, (+)- or (−)-trans-6-[6-[(2,4-Difluorophenyl)methyl]-2-azaspiro[3.3]heptane-2-carbonyl]-4,4a,5,7,8,8a-hexahydropyrido[4,3-b][1,4]oxazin-3-one]
